Results: EP1660440B1, “ACYLOXYALKYL CARBAMATE PRODRUGS, METHODS OF SYNTHESIS AND USE” (priority 2003, dated 2005)
Read-outs that look alike come from different tables or passages of the source.

Experiments:
[1] = human, s9, 1 h, 2 µM
Description: (§1) The stabilities of prodrugs were evaluated in one or more in vitro systems using a variety of tissue preparations following methods known in the art. The chemical stability of prodrugs in aqueous buffers at pH's of 2.0, 7.4 and 8.0 were also measured. […] Each preparation was incubated with test compound at 37°C for one hour. Aliquots (50 µL) were removed at 0, 30, and 60 min and quenched with 0.1 % trifluoroacetic acid in acetonitrile.

[2] = rat, plasma, 1 h, 2 µM
Description: as §1

[3] = rat, s9, 1 h, 2 µM
Description: as §1

[4] = aqueous buffer, 1 h
Description: as §1

[5] = tested on: Pancreatin; assay: Pancreatin stability; type: in vitro ADME, porcine; details: 1 % (w/v) pancreatin, 5 µM, pH 7.5, 37 °C, after 60 min
Description: Pancreatin Stability: Stability studies were conducted by incubating prodrug (5 µM) with 1 % (w/v) pancreatin (Sigma, P-1625, from porcine pancreas) in 0.025 M Tris buffer containing 0.5 M NaCl (pH 7.5) at 37 °C for 60 min. The reaction was stopped by addition of 2 volumes of methanol. After centrifugation at 14,000 rpm for 10 min, the supernatant was removed and analyzed by LC/MS/MS.

[6] = human, s9, 1 h, 5 µM
[7] = human, plasma, 1 h, 2 µM

SMILES	% of Baclofen Released [1] [%]	% of Prodrug Remaining [1] [%]	% of Baclofen Released [2] [%]	% of Prodrug Remaining [2] [%]	% of Baclofen Released [3] [%]	% of Prodrug Remaining [3] [%]	% of Baclofen Released ([4]; pH 2) [%]	% of Prodrug Remaining ([4]; pH 2) [%]	% of Baclofen Released ([4]; pH 7.4) [%]	% of Prodrug Remaining ([4]; pH 7.4) [%]	% of Baclofen Released ([4]; pH 8) [%]	% of Prodrug Remaining ([4]; pH 8) [%]	% of Baclofen Released [5] [%]	% of Prodrug Remaining [5] [%]	% of Baclofen Released [6] [%]	% of Prodrug Remaining [6] [%]	% of Baclofen Released [7] [%]	% of Prodrug Remaining [7] [%]
CC(=O)OC(OC(=O)NC[C@H](CC(=O)[O-])c1ccc(Cl)cc1)C(C)C.[Na+] (stereo partly drawn) [(23), Sodium 4-[(1-Acetoxylsobutoxy)carbonylamino]1-(3R)-(4-chlorophenyl)-butanoate]	105	4	93	11	107	3	0	107	1	89	2	90	24	82	87	15	3	96
CC(C)C(=O)OC(OC(=O)NC[C@H](CC(=O)[O-])c1ccc(Cl)cc1)C(C)C.[Na+] (stereo partly drawn) [(25), Sodium 4-[(1-Isobutanoyloxyisobutoxy)carbonylamino]-(3R)-(4-chlorophenyl)-butanoate]	91	4	96	5	98	1	0	101	0	100	0	100	84	22	95	2	4	93
CC(OC(=O)NC[C@H](CC(=O)[O-])c1ccc(Cl)cc1)OC(=O)C(C)C.[Na+] (stereo partly drawn) [(33), Sodium 4-[(1-Isobutanoyloxyethoxy)carbonylamino]-(3R)-(4-chlorophenyl)-butanoate]	101	3	30	73	101	4	0	100	0	72	0	101	52	46	95	3	4	96
CC(C)C(=O)O[C@H](C)OC(=O)NC[C@H](CC(=O)[O-])c1ccc(Cl)cc1.[Na+] [(34), Sodium 4-{[(1S)-Isobutanoyloxyethoxy]-carbonylamino}-(3R)-(4-chlorophenyl) -butanoate]	100	3	18	78	100	1	0	100	0	100	0	100	18	81	100	2	2	90
